The nature of this series: LogPOW, distribution coefficient in 1-octanol and water (OECD Test Guideline 107, 117; JIS Z7260-107). The class given is physicochemical. Conditions: 1-octanol/water (1:1) distribution coefficient. The source says: In the present invention, a fluorinated anionic surfactant having a LogPOW of from 2.4 to 3.4 is used. The LogPOW is a distribution coefficient in 1-octanol and water as stipulated in OECD Test Guideline 107, 117 and Japanese Industrial Standard Z7260-107 (2000).
At the time when a mixed liquid of octanol/water (1:1) each containing a surfactant to be measured, is phase-separated, POW represents a ratio of the surfactant concentration in octanol/the surfactant concentration in water. A surfactant having a large distribution coefficient value has a high bioaccumulation property, and a surfactant having a small distribution coefficient value has a low bioaccumulation property. When the LogPOW is 3.4 or less, the bioaccumulation property is judged to be low. By the measurement conducted by the present inventors, the LogPOW of APFO was 3.67.

logP data for 2 molecules are collected here from US10865257B2, “Production methods for aqueous emulsion, fine powder and stretched porous body of modified polytetrafluoroethylene” (AGC Inc., priority 2015, dated 2020).

A word on the logP: it is the decadic logarithm of the partition coefficient of the neutral form, usually between octanol and water. High values mean higher lipophilicity, low ones lower lipophilicity.

`O=C(O)C(F)(F)OC(F)(F)C(F)(F)OC(F)(F)C(F)(F)F` [APFDO, ammonium perfluoro-3,6-dioxaoctanoate] gave a logP of 3.1.

`O=C(O)C(F)(F)C(F)(F)C(F)(F)C(F)(F)C(F)(F)C(F)(F)C(F)(F)F` [APFO, ammonium perfluorooctanoate] gave a logP of 3.67.
